The results in this text go back to US11091488B2 (MISSION THERAPEUTICS LIMITED, priority 2015, dated 2021).

Molecules are shown by their SMILES.

The target of the assay is USP30 (Homo sapiens (Human), UniProt Q70CQ3). Nature of the assay: USP30 biochemical IC50 assay. Particulars: read-out: IC50 range; fluorescence polarisation, TAMRA labelled peptide linked to ubiquitin; 30 min pre-incubation, read after 2 hr. A general note: Polarisation of emitted light reports the rotation of a fluorescent probe.
Chain of USP30 (Q70CQ3 57-517): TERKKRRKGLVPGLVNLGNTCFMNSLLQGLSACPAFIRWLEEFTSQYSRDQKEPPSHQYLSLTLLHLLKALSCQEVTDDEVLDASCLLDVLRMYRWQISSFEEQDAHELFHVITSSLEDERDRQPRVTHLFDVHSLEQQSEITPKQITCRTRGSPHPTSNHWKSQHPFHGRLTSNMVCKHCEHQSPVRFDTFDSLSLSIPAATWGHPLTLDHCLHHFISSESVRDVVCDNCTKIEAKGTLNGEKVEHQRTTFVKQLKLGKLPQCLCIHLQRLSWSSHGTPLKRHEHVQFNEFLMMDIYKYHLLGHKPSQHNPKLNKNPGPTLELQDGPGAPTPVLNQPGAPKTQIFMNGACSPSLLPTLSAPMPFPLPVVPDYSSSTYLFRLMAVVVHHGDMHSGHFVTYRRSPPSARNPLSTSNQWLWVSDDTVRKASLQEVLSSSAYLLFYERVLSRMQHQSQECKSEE
Experimental: USP30 Biochemical IC50 Assay
Dilution plates were prepared at 21 times the final concentration (2100 μM for a final concentration of 100 μM) in 50% DMSO in a 96-well polypropylene V-bottom plate (Greiner #651201). A typical 8-point dilution series to be 100, 30, 10, 3, 1, 0.3, 0.1, 0.03 μM final. Reactions were performed in duplicate in black 384 well plates (small volume, Greiner 784076) in a final reaction volume of 21 μl. Either 1 μl of 50% DMSO or diluted compound was added to the plate. USP30 was diluted in reaction buffer (40 mM Tris, pH 7.5, 0.005% Tween 20, 0.5 mg/ml BSA, 5 mM—beta-mercaptoethanol) to the equivalent of 0.05 μl/well and 10 μl of diluted USP30 was added to the compound. Enzyme and compound were incubated for 30 min at room temp. Reactions were initiated by the addition of 50 nM of TAMRA labelled peptide linked to ubiquitin via an iso-peptide bond as fluorescence polarisation substrate. Reactions were read immediately after addition of substrate and following a 2 hr incubation at room temperature. Readings were performed on a Pherastar Plus (BMG Labtech). λ Excitation 540 nm; λ Emission 590 nm.
As for `N#CN1CC[C@H](N2CCN(c3cccc(-c4ccno4)c3)S2(=O)=O)C1` [Example 1, (S)-3-(5-(3-(isoxazol-5-yl)phenyl)-1,1-dioxido-1,2,5-thiadiazolidin-2-yl)pyrrolidine-1-carbonitrile], the concentration for half-maximal inhibition (IC50) is 0.1 to 1 µM. With `CN1C(=O)COc2cc(N3CCN([C@@H]4CCN(C#N)C4)S3(=O)=O)ccc21` [Example 2, (R)-3-(5-(4-methyl-3-oxo-3,4-dihydro-2H-benzo[b][1,4]oxazin-7-yl)-1,1-dioxido-1,2,5-thiadiazolidin-2-yl)pyrrolidine-1-carbonitrile], the IC50 is less than 0.1 µM. Take `N#CN1CC[C@@H](N2CCN(c3ccc4c(c3)OCC(=O)N4)S2(=O)=O)C1` [Example 3, (R)-3-(1,1-dioxido-5-(3-oxo-3,4-dihydro-2H-benzo[b][1,4]oxazin-7-yl)-1,2,5-thiadiazolidin-2-yl)pyrrolidine-1-carbonitrile]: the half-maximal inhibitory concentration (IC50) was 0.1 to 1 µM. Take `N#CN1CC[C@@H](N2CCN(c3ccc4c(c3)NC(=O)CO4)S2(=O)=O)C1` [Example 5, (R)-3-(1,1-dioxido-5-(3-oxo-3,4-dihydro-2H-benzo[b][1,4]oxazin-6-yl)-1,2,5-thiadiazolidin-2-yl)pyrrolidine-1-carbonitrile]: the 50% inhibitory concentration (IC50) is less than 0.1 µM. As for `N#CN1CC[C@@H](N2CCN(c3ccc4c(c3)N(CCO)C(=O)CO4)S2(=O)=O)C1` [Example 6, (R)-3-(5-(4-(2-hydroxyethyl)-3-oxo-3,4-dihydro-2H-benzo[b][1,4]oxazin-6-yl)-1,1-dioxido-1,2,5-thiadiazolidin-2-yl)pyrrolidine-1-carbonitrile], the figure is 0.1 to 1 µM.

On to `COc1ccc(N2CCN([C@@H]3CCN(C#N)C3)S2(=O)=O)cc1N1CCOCC1` [Example 8, (R)-3-(5-(4-methoxy-3-morpholinophenyl)-1,1-dioxido-1,2,5-thiadiazolidin-2-yl)pyrrolidine-1-carbonitrile], for which the IC50 lay within 0.1 to 1 µM.

On to `N#CN1CC[C@@H](N2CCN(C3CCN(c4ccccn4)C3)S2(=O)=O)C1` (stereo partly drawn) [Example 9, (3R)-3-(1,1-dioxido-5-(1-(pyridin-2-yl)pyrrolidin-3-yl)-1,2,5-thiadiazolidin-2-yl)pyrrolidine-1-carbonitrile], for which the IC50 was 0.1 to 1 µM. Under `COc1ccccc1-c1cccc(N2CCN([C@@H]3CCN(C#N)C3)S2(=O)=O)c1` [Example 10, (R)-3-(5-(2′-methoxy-[1,1′-biphenyl]-3-yl)-1,1-dioxido-1,2,5-thiadiazolidin-2-yl)pyrrolidine-1-carbonitrile] stands less than 0.1 µM; under `N#CN1CC[C@@H](N2CCN(c3ccc(-c4ccccc4)cc3)S2(=O)=O)C1` [Example 11, (R)-3-(5-([1,1′-biphenyl]-4-yl)-1,1-dioxido-1,2,5-thiadiazolidin-2-yl)pyrrolidine-1-carbonitrile], less than 0.1 µM. As for `N#CN1CC[C@@H](N2CCCN(c3ccc(-c4ccccc4)cc3)S2(=O)=O)C1` [Example 12, (R)-3-(6-([1,1′-biphenyl]-4-yl)-1,1-dioxido-1,2,6-thiadiazinan-2-yl)pyrrolidine-1-carbonitrile], the figure is 0.1 to 1 µM; as for `N#CN1CC[C@@H](N2CCN(c3cccc(-c4ccccc4)c3)S2(=O)=O)C1` [Example 13, (R)-3-(5-([1,1′-biphenyl]-3-yl)-1,1-dioxido-1,2,5-thiadiazolidin-2-yl)pyrrolidine-1-carbonitrile], less than 0.1 µM. As for `N#CN1CC[C@@H](N2CCCN(c3cccc(-c4ccccc4)c3)S2(=O)=O)C1` [Example 14, (R)-3-(6-([1,1′-biphenyl]-3-yl)-1,1-dioxido-1,2,6-thiadiazinan-2-yl)pyrrolidine-1-carbonitrile], the figure is 0.1 to 1 µM; as for `COc1ccc(-c2ccccc2)cc1N1CCN([C@@H]2CCN(C#N)C2)S1(=O)=O` [Example 15, (R)-3-(5-(4-methoxy-[1,1′-biphenyl]-3-yl)-1,1-dioxido-1,2,5-thiadiazolidin-2-yl)pyrrolidine-1-corbonitrile], less than 0.1 µM.

By IC50 is commonly meant the concentration needed to halve the response being measured.
